Measured values published in patent publication US20080139607A1, “New Compounds” (ASTRAZENECA AB, priority 2006, published 2008).

biological target: Recombinant human PAI-1 (Homo sapiens, UniProt P05121); assay: Plasma clot lysis assay for testing of PAI-1 inhibitors (clot lysis in platelet-poor plasma); type: biochemical; settings: concentration at which clot lysis time is halved (pIC50=-log IC50); platelet-poor plasma 50%, PAI-1 10-13 ng/mL, t-PA 34 ng/mL, 37° C.
Experimental: Plasma Clot Lysis Assay for Testing of PAI-1 Inhibitors
CaCl2, p.a. Stock solution 0.1 M in water.
PAI-1 inhibitors dissolved in 100% DMSO.
Experimental Procedures—Clot Lysis in Platelet-Poor Plasma
Blood from healthy fat-fasting volunteers was collected into 0.13 M trisodium citrate, 9 parts blood to 1 part anticoagulant. The tubes were centrifuged at 2000×g, 20 min, at RT. The supernatant, ie, the platelet poor plasma was pooled, aliquoted and frozen at −85° C. until used. At the day of experiment the plasma was thawed in a water bath and temperated to 37° C. All other constituents, except t-PA, were prewarmed to 37° C. To each well on a microtiter plate, 25 μL CaCl2, 25 μL PAI-1 or 25 μL PAI-1 vehicle, 20 μL saline and 5 μL drug or 5 μL vehicle (100% DMSO) were added. Plasma was mixed with cold t-PA solution in the relation 4 parts plasma with 1 part t-PA, just before adding 125 μL of this mixture to each well. The final concentration was 12.5 mM for CaCl2, 10-13 ng/mL for PAI-1, 34 ng/mL for t-PA, and the compounds were tested at a final concentration range 0.1 nM to 0.25 mM. The final plasma concentration was 50%, as a result of the different additives. The plate, covered with a plastic lid, was placed in a Microplate reader (Molecular Devices, US) and gently shaken. The change in turbidity was immediately monitored as a change in absorbance at 405 nm at 37° C. Data points were collected at intervals of 2 min, during a period of 10 h. After finished reading, the absorbance data were transformed into files containing the time and absorbance values for each well. The clot longevity, ie, the time the clot exists, was determined as the time between clot formation, ie, positive Vmax, and clot lysis, ie, negative Vmax. The effect of the drugs, ie, shortening of the longevity for the clot, was expressed as the concentration at which a halving of the clot lysis time was reached, the IC50 (pIC50=−log IC50). Control clot lysis time, set to 100%, was determined in the presence of PAI-1, and the maximal effect, ie, the shortest lysis time that can be reached under defined conditions in this system, in the absence of PAI-1 was set to 0%.
Compounds having a pIC50 higher than 4 were considered as being active.

Chain of Recombinant human PAI-1 (P05121 24-402): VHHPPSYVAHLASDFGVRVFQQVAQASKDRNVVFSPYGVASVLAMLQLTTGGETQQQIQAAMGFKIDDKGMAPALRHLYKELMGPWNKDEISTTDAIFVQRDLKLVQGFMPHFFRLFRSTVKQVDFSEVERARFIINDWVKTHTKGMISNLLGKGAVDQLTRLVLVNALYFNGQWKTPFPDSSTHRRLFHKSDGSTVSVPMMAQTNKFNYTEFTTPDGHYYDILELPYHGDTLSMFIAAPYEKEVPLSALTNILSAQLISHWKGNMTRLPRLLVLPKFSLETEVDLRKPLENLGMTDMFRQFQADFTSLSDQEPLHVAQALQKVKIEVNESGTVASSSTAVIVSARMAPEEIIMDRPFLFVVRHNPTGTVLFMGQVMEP

| SMILES | IC50 [µM] |
| --- | --- |
| CCCCCCCc1cc(=O)n2c(c1-c1cccs1)SC[C@H]2C(=O)O [Example 19, (3R)-7-heptyl-5-oxo-8-(2-thienyl)-2,3-dihydro-5H-[1,3]thiazolo[3,2-a]pyridine-3-carboxylic acid] | 10 |
| CCCCCCc1c(-c2cccc(C(F)(F)F)c2)c2n(c(=O)c1N)[C@H](C(=O)O)CS2 [Example 14, (3R)-6-Amino-7-hexyl-5-oxo-8-(3-trifluoromethyl-phenyl)-2,3-dihydro-5H-thiazolo[3,2-a]pyridine-3-carboxylic acid] | 12.6 |
| CCCCCCCc1cc(=O)n2c(C(=O)O)csc2c1-c1ccc(F)c(F)c1 [Example 23, 8-(3,4-difluorophenyl)-7-heptyl-5-oxo-5H-[1,3]thiazolo[3,2-a]pyridine-3-carboxylic acid] | 10 |
| CCCCc1cc(=O)n2c(c1-c1cccc(C(F)(F)F)c1)SC[C@H]2C(=O)O [Example 9, (3R)-7-Butyl-5-oxo-8-(3-trifluoromethyl-phenyl)-2,3-dihydro-5H-thiazolo[3,2-a]pyridine-3-carboxylic acid] | 39.8 |
| CC(C)CCc1c(-c2cccc(C(F)(F)F)c2)c2n(c(=O)c1[N+](=O)[O-])[C@H](C(=O)O)CS2 [Example 13, (3R)-7-(3-methylbutyl)-6-nitro-5-oxo-8-(3-trifluoromethyl-phenyl)-2,3-dihydro-5H-thiazolo[3,2-a]pyridine-3-carboxylic acid] | 12.6 |
| CCCCCCCc1cc(=O)n2c(c1-c1c[nH]c3ccccc13)SC[C@H]2C(=O)O [Example 20, (3R)-7-heptyl-8-(1H-indol-3-yl)-5-oxo-2,3-dihydro-5H-[1,3]thiazolo[3,2-a]pyridine-3-carboxylic acid] | 12.6 |
| CCCCCCCCc1cc(=O)n2c(c1-c1cccc(C(F)(F)F)c1)SC[C@H]2C(=O)O [Example 18, (3R)-7-octyl-5-oxo-8-[3-(trifluoromethyl)phenyl]-2,3-dihydro-5H-[1,3]thiazolo[3,2-a]pyridine-3-carboxylic acid] | 3.98 |
| CCCCc1c(-c2cccc(C(F)(F)F)c2)c2n(c(=O)c1[N+](=O)[O-])[C@H](C(=O)O)CS2 [Example 15, (3R)-7-Butyl-6-nitro-5-oxo-8-(3-trifluoromethyl-phenyl)-2,3-dihydro-5H-thiazolo[3,2-a]pyridine-3-carboxylic acid] | 39.8 |
| O=C(O)[C@@H]1CSc2c(-c3ccccc3)c(CCCOc3ccc(Cl)cc3Cl)cc(=O)n21 [Example 21, (3R)-7-[3-(2,4-dichloro-phenoxy)-propyl]-5-oxo-8-phenyl-2,3-dihydro-51H-thiazolo[3,2-a]pyridine-3-carboxylic acid] | 12.6 |
| CCCCCCc1c(-c2cccc(C(F)(F)F)c2)c2n(c(=O)c1[N+](=O)[O-])[C@H](C(=O)O)CS2 [Example 12, (3R)-7-Hexyl-6-nitro-5-oxo-8-(3-trifluoromethyl-phenyl)-2,3-dihydro-5H-thiazolo[3,2-a]pyridine-3-carboxylic acid] | 12.6 |
| CCCCCCCc1cc(=O)n([C@@H](C)C(=O)O)cc1-c1ccc(F)c(F)c1 [Example 3, (2S)-2-[5-(3,4-Difluoro-phenyl)-4-heptyl-2-oxo-2H-pyridin-1-yl]-propionic acid] | 12.6 |
| CCCCCCCc1cc(=O)n2c(c1-c1ccc(F)c(F)c1)S[C@H](c1ccccc1)[C@H]2C(=O)O [Example 24, (2R,3R)-8-(3,4-difluorophenyl)-7-heptyl-5-oxo-2-phenyl-2,3-dihydro-5H-[1,3]thiazolo[3,2-a]pyridine-3-carboxylic acid] | 5.01 |
| CCCCCCCc1c(-c2cccc(C(F)(F)F)c2)c2n(c(=O)c1[N+](=O)[O-])[C@H](C(=O)O)CS2 [Example 10, (3R)-7-Heptyl-6-nitro-5-oxo-8-(3-trifluoromethyl-phenyl)-2,3-dihydro-5H-thiazolo[3,2-a]pyridine-3-carboxylic acid] | 3.98 |
| CC(C)CCc1c(-c2cccc(C(F)(F)F)c2)c2n(c(=O)c1N)[C@H](C(=O)O)CS2 [Example 16, (3R)-6-Amino-7-(3-methyl-butyl)-5-oxo-8-(3-trifluoromethyl-phenyl)-2,3-dihydro-5H-thiazolo[3,2-a]pyridine-3-carboxylic acid] | 79.4 |

The remaining lines, values ahead:

| IC50 [µM] | SMILES |
| --- | --- |
| 15.8 | CCCCCCCc1cc(=O)n2c(c1-c1ccc(F)c(F)c1)SC[C@H]2C(=O)O [Example 1, (3R)-8-(3,4-Difluoro-phenyl)-7-heptyl-5-oxo-2,3-dihydro-5H-thiazolo[3,2-a]pyridine-3-carboxylic acid] |
| 10 | CCCCCCCc1cc(=O)n2c(c1-c1ccc(F)c(F)c1)SC[C@H]2C(=O)NS(C)(=O)=O [Example 2, (3R)—N-[8-(3,4-Difluoro-phenyl)-7-heptyl-5-oxo-2,3-dihydro-5H-thiazolo[3,2-a]pyridine-3-carbonyl]-methanesulfonamide] |
| 20 | CCCCCCCc1c(-c2ccc(F)c(F)c2)c2n(c(=O)c1C(=O)O)[C@H](C(=O)OC)CS2 [Example 6, (3R)-8-(3,4-Difluoro-phenyl)-7-heptyl-5-oxo-2,3-dihydro-5H-thiazolo[3,2-a]pyridine-3,6-dicarboxylic acid 3-methyl ester] |
| 10 | CCCCCCCc1cc(=O)n2c(c1-c1ccc(F)c(F)c1)S[C@H](OC)[C@H]2C(=O)O [Example 22, (2S,3R)-8-(3,4-difluorophenyl)-7-heptyl-2-methoxy-5-oxo-2,3-dihydro-5H-[1,3]thiazolo[3,2-a]pyridine-3-carboxylic acid] |
| 25.1 | CCCCCCCc1cc(=O)n2c(c1-c1ccc(F)c(F)c1)SC[C@H]2c1nnn[nH]1 [Example 5, (3R)-8-(3,4-Difluoro-phenyl)-7-heptyl-3-(1H-tetrazol-5-yl)-2,3-dihydro-thiazolo[3,2-a]pyridin-5-one] |
| 12.6 | CCCCCCCc1cc(=O)n2c(c1-c1cccc(C(F)(F)F)c1)SC[C@H]2C(=O)O [Example 7, (3R)-7-Heptyl-5-oxo-8-(3-trifluoromethyl-phenyl)-2,3-dihydro-5H-thiazolo[3,2-a]pyridine-3-carboxylic acid] |
| 20 | CCCCCCCc1c(-c2ccc(F)c(F)c2)c2n(c(=O)c1[N+](=O)[O-])[C@H](C(=O)O)CS2 [Example 17, (3R)-8-(3,4-Difluoro-phenyl)-7-heptyl-6-nitro-5-oxo-2,3-dihydro-5H-thiazolo[3,2-a]pyridine-3-carboxylic acid] |
| 50.1 | CCCCCCCc1cc(=O)n2c(c1-c1ccc(F)c(F)c1)SC[C@@H]2C(N)=O [Example 4, (3S)-8-(3,4-Difluoro-phenyl)-7-heptyl-5-oxo-2,3-dihydro-5H-thiazolo[3,2-a]pyridine-3-carboxylic acid amide] |
| 2.51 | CCCCCCCc1cc(=O)n2c(c1-c1cccc(C(F)(F)F)c1)SC[C@H]2C(=O)NS(=O)(=O)c1ccccc1 [Example 8, (3R)—N-[7-Heptyl-5-oxo-8-(3-trifluoromethyl-phenyl)-2,3-dihydro-5H-thiazolo[3,2-a]pyridine-3-carbonyl]-benzenesulfonamide] |
| 10 | CCCCCCCc1cc(=O)n2c(c1-c1ccc(F)c(F)c1)SC[C@@H]2C(=O)O [Example 11, (3S)-8-(3,4-Difluoro-phenyl)-7-heptyl-5-oxo-2,3-dihydro-5H-thiazolo[3,2-a]pyridine-3-carboxylic acid] |
| 3.98 | CCCCCCCc1cc(=O)n2c(c1-c1ccc(F)c(F)c1)S[C@H](C)[C@H]2C(=O)O [Example 25, (2R,3R)-8-(3,4-difluorophenyl)-7-heptyl-2-methyl-5-oxo-2,3-dihydro-5H-[1,3]thiazolo[3,2-a]pyridine-3-carboxylic acid] |
